pIC50: −log10 of the molar value.

The values below come from PMC11997890, “In Vivo and In Vitro Pharmacokinetic Studies of a Dual Topoisomerase I/II Inhibitor” (ACS Pharmacology & Translational Science, 2025).

Data set [1] is described as follows: In vitro biotransformation of P8-D6 with mouse tissue PNS. The data set is classed as in vitro ADME. The following applies: mouse liver PNS, 1 mM P8-D6, 150 min. As to the method:
P8-D6 (1 mM) was incubated with postnuclear supernatant (PNS), microsomes, or S9 reaction mixture of various tissue samples (liver, kidney, lung, spleen, and colon) from different donor species (pigs, mice, rats, and humans) for 150 min (study preparation scheme supplied as Figure S5). The commercial human and rat enzymes were subjected to quality control by the supplier. Three phase I metabolites were identified. […] LC-MS and NMR spectroscopic data for the metabolites are given in Supporting Information. Based on the structural characteristics, the metabolites were named as follows: P8-DO (4), P8-D6 N-oxide (6), and P8-D6 mono (8). All metabolites were synthesized to confirm the postulated structure (chapter Synthesis of Metabolites). The extent of metabolism during in vitro incubation was highly dependent on the species (pig > mouse > rat > human) (Figure ).
For all phase I metabolism studies (except cell cultures), a 0.3 mL reaction mixture consisting of 1 mM substrate (P8-D6, P8-D6 mono, P8-D6 N-oxide), 1 mM NADPH as a cofactor, 0.67 mg/mL protein from homogenized tissue or subcellular fractions, respectively (except recombinant enzymes, where 0.5 mg/mL was used), and PBS buffer (pH 7.4) was used. All experiments were performed in biological triplicates. […]

In data set [2] the target is T1, CYP3A4 (Homo sapiens, UniProt P08684).
T1 construct: host or cells: human liver microsomes (one value) / recombinant CYP enzyme (other value)
T1 sequence (P08684 whole entry): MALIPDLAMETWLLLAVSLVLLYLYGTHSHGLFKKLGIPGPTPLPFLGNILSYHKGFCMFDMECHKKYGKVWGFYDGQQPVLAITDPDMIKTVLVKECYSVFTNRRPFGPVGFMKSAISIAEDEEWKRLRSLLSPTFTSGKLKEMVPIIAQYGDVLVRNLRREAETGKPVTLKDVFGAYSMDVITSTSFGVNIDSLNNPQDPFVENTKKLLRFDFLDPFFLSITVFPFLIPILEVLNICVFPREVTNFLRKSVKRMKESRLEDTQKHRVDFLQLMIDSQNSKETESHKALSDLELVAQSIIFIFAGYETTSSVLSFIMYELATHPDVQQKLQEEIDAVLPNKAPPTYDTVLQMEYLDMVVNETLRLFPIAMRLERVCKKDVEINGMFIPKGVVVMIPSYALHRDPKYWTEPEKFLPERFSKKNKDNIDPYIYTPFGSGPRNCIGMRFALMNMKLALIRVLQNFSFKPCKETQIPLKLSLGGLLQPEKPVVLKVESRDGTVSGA
Put plainly: Conversion of P8-D6 by recombinant CYP3A4. The data set is classed as in vitro ADME. On the procedure: (§1) P8-D6 N-oxide was the most common metabolite for all incubations with subcellular fractions from the homogenized tissue. According to the detected MS-MS fragments (supplied as Supporting Information Chapter 2), it resulted from N-oxygenation of the nitrogen at the side chain since the unmodified fragment of P8-DO (m/z = 414.1) was detected. Furthermore, the detected fragment at m/z = 440.1 is most likely a carbocation at the remaining ethyl chain after splitting off the dimethylamine N-oxide further strengthening the theory of selectively forming this specific N-oxide. In addition, no relevant chemical shifts in the aromatic range of the ^1H NMR compared to P8-D6 and mono were observed (supplied as Supporting Information Chapter 2). Thus, no chemical modifications can have occurred on the aromatic rings, and all changes must therefore affect the side chain. […] To determine which enzymes were responsible for the conversion, seven recombinant CYP 450 isoenzymes recommended by the FDA’s “Guidance for Industry” and human FMO3 were used.
Among the recombinant enzymes, P8-D6 is mostly metabolized to P8-D6 mono by CYP3A4 (0.34%, significant compared to any other enzyme, p < 0.0001) and 2D6 (0.17%, significant compared to 2C8, 1A2, 2C19, and 2C9, p < 0.005) (Figure E). […]

Data set [3] concerns the target T1, CYP3A4. Description: In vitro CYP inhibition, marker substrate testosterone. The data set is classed as in vitro ADME. On the procedure: (§2) To assess metabolizing enzyme-mediated drug interactions, P8-D6 was incubated with human liver (HLM) or recombinant CYP enzymes and the respective marker substrate according to the FDA (with the exception of using amitriptyline instead of S-mephenytoin). −
(§3) However, as some conversions were catalyzed by several enzymes, the conversion rates in HLM increased (e.g., bupropion and diclofenac).
(§4) To examine a possible in vitro CYP inhibition, the following CYP enzymes and marker substrates were investigated according to the FDA: , phenacetin (CYP1A2), bupropion (CYP2B6), amodiaquine (CYP2C8), diclofenac (CYP2C9), amitriptyline (CYP2C19), dextromethorphan (CYP2D6), testosterone (CYP3A4), and nifedipine (CYP3A4). Incubation was performed in a 0.2 mL reaction mix consisting of PBS buffer (pH 7.4), 1 mM marker substrate, 1 mM NADPH, and either 0.5 mg/mL recombinant CYP enzyme or human liver microsomes. P8-D6 was added for a final concentration of 0.5 μM, 1 μM, 5 μM, 10 μM, 25 μM, 50 μM, 100 μM, 500 μM, 1000 μM, and (in some cases) 5000 μM. Sample preparation was performed according to in vitro biotransformation.

A further data set is described as follows: Lipophilicity. The format is physicochemical.
The next data set concerns the target T2, CYP2C19 (Homo sapiens, UniProt P33261).
T2 construct: host or cells: human liver microsomes (one value) / recombinant CYP enzyme (other value)
Description: In vitro CYP inhibition, marker substrate amitriptyline. The format is in vitro ADME. As to the method:
as §2, §3, §4

Another data set concerns the target T3, CYP2C9 (Homo sapiens, UniProt P11712).
T3 construct: host or cells: human liver microsomes (one value) / recombinant CYP enzyme (other value)
Put plainly: Conversion of P8-D6 by recombinant CYP2C9. The data set is classed as in vitro ADME. As to the method: as §1
The third and final in vitro metabolite, P8-DO, is a direct synthesis precursor of P8-D6 and results from oxidative O-desalkylation of the complete side chain (Figure ). […] The formation of P8-DO is mainly catalyzed by CYP2C9 (0.10%) and 2D6 (0.09%) (Figure E). […]

T2 sequence (P33261 whole entry): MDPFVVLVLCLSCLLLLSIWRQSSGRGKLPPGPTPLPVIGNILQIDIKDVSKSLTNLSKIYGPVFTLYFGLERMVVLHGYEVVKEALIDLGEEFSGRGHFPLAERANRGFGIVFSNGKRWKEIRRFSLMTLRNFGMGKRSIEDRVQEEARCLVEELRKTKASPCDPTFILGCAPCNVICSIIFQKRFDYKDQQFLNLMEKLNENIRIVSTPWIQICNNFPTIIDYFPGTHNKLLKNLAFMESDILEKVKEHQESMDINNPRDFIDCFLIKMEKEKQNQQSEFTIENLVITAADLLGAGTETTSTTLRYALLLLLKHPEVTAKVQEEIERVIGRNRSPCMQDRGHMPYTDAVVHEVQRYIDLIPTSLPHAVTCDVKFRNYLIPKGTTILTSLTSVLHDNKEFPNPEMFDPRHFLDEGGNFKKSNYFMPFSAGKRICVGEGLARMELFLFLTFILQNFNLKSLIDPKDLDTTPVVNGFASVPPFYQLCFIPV
T3 sequence (P11712 whole entry): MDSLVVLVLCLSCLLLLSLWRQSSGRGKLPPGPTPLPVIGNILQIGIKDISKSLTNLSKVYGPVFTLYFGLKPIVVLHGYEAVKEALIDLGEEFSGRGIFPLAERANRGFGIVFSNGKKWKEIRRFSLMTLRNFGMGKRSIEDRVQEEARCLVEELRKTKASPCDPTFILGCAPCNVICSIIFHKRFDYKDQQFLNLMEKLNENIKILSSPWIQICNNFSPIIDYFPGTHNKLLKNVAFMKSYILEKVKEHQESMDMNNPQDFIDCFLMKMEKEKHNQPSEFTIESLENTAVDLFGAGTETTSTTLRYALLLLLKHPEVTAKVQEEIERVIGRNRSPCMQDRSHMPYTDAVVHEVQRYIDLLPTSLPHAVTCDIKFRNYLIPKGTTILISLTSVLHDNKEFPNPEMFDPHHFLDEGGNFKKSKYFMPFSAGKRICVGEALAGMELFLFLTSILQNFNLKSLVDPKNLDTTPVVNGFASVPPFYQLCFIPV

Take `COc1cc(-c2cc3ccncc3c3nc(OCC[N+](C)(C)[O-])c4cnccc4c23)cc(OC)c1OC` [P8-D6 N-oxide]: the “formation of metabolite from P8-D6” value in data set [1] was determined as 3.08%.

As to `CNCCOc1nc2c3cnccc3cc(-c3cc(OC)c(OC)c(OC)c3)c2c2ccncc12` [P8-D6 mono], on CYP3A4 [2], the “formation of metabolite from P8-D6” value is 0.34%.

By pIC50 is commonly meant −log10 of the IC50, conventionally taken in molar units. What is called logP is the decadic logarithm of the partition coefficient of the neutral form, usually between octanol and water. Take `COc1cc(-c2cc3ccncc3c3nc(OCCN(C)C)c4cnccc4c23)cc(OC)c1OC` [P8-D6, 6-(N,N-dimethyl-2-aminoethoxy)-11-(3,4,5-trimethoxyphenyl)-pyrido[3,4-c][1,9]-phenanthroline]: the negative-log IC50 (pIC50) at CYP3A4 [3] (HLM) was 3.78; at CYP3A4 [3] (recombinant CYP isoenzyme), 4.03; at CYP2C19 (HLM), 3.83; on CYP2C19 (recombinant CYP isoenzyme), 3.10. Besides, the logP in the data set “Lipophilicity” is 2.9. In the data set “Lipophilicity” (pH 7.4, read-out: log D7.4), the logD came out at 3.7.

Regarding `COc1cc(-c2cc3ccncc3c3[nH]c(=O)c4cnccc4c23)cc(OC)c1OC` [P8-DO], on CYP2C9, the “formation of metabolite from P8-D6” value is 0.10%.
